In paper PMC8225008, “Development of Non-Ethoxypropanoic Acid Type Cryptochrome Inhibitors with Circadian Molecular Clock-Enhancing Activity by Bioisosteric Replacement” (Pharmaceuticals, 2021):

Experiments:
[1] = biological target: T1, CYP1A2 (Homo sapiens, UniProt P05177); test: Cytochrome P450 inhibition assay (cocktail method, human liver microsomes), phenacetin O-deethylation; type: in vitro ADME
T1 construct: pooled human liver microsomes (HLMs, XTreme 200, XenoTech, Lenexa, KS, USA); tissue XenoTech XTreme 200; host or cells: pooled human liver microsomes
T1 sequence (P05177 1-516): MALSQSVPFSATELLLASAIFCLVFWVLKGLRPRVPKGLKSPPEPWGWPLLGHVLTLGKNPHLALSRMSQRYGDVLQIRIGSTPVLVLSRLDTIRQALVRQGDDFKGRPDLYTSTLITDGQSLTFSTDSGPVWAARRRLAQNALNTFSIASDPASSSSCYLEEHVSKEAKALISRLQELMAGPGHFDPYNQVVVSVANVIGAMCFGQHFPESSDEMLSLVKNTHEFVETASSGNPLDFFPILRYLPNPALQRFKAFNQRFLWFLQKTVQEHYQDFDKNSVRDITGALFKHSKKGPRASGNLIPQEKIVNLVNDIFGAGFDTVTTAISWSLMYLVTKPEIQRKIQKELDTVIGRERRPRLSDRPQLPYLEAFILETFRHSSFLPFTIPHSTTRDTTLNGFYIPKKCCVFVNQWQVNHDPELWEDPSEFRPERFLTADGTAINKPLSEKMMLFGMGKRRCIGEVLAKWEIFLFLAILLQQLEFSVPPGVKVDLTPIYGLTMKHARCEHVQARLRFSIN
Description: (§1) The inhibitory effects of KS15 and compound 5d on the metabolism of five cytochrome P450 (P450) probe substrates were evaluated using previous methods with slight modifications. The following P450 probe substrates were used: phenacetin (100 μM) for CYP1A2, tolbutamide (100 μM) for CYP2C9, omeprazole (20 μM) for CYP2C19, dextromethorphan (5 μM) for CYP2D6, and midazolam (5 μM) for CYP3A. Incubation mixtures containing pooled human liver microsomes (HLMs, XTreme 200, XenoTech, Lenexa, KS, USA), P450 probe substrates, and KS15 or compound 5d (final concentrations: 0, 0.5, 2, 5, 20, and 50 μM) were preincubated for 5 min at 37 °C. […] After centrifugation at 18,000× g (5 min, 4 °C), supernatant aliquots were analyzed by liquid chromatography-tandem mass spectrometry (LC-MS/MS). […]
(§2) All metabolites and IS were separated on a Kinetex C18 column (100 mm × 2.1 mm, 2.6 μm ID., Phenomenex, Torrance, CA, USA) and analyzed using an LC-MS/MS system (LCMS 8060, Shimadzu, Tokyo, Japan) equipped with an electrospray ionization (ESI) interface. […]
(§3) The EC50 values for luciferase reporter assay were calculated based on a logistic four-parametric equation using the mean values of intrinsic activation (SigmaPlot 10.0; Systat Software Inc., San Jose, CA, USA). […] Pharmacokinetic parameters were calculated using non-compartmental analysis (WinNonlin v.8.3; Pharsight, Mountain View, CA, USA). […]

[2] = biological target: T2, CYP2C9 (Homo sapiens, UniProt P11712); test: Cytochrome P450 inhibition assay (cocktail method, human liver microsomes), tolbutamide 4-methylhydroxylation; type: in vitro ADME
T2 construct: pooled human liver microsomes (HLMs, XTreme 200, XenoTech, Lenexa, KS, USA); tissue XenoTech XTreme 200; host or cells: pooled human liver microsomes
Description: as §1, §2, §3

T2 sequence (P11712 whole entry): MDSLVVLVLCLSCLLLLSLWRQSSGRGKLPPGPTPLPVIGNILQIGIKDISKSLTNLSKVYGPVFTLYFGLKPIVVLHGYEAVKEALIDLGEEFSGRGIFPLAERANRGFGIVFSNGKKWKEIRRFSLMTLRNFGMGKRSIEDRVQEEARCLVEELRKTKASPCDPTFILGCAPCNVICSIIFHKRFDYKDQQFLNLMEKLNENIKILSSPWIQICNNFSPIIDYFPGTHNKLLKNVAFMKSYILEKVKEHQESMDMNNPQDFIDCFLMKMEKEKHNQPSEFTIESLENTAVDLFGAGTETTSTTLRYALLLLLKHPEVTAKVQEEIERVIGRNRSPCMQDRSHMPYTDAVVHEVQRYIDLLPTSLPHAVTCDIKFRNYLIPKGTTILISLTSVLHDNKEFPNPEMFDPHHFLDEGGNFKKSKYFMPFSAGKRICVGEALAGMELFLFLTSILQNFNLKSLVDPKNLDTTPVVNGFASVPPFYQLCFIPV

IC50 [1]: > 50 µM
IC50 [2]: > 50 µM
Compound: COC(=O)COc1cccc(C(C)=NOCc2ccc([N+](=O)[O-])cc2)c1 [Compound 5d, Methyl 2-(3-(1-(((4-nitrobenzyl)oxy)imino)ethyl)phenoxy)acetate]
